Test results published in publication PMC9064041 (Journal of medicinal chemistry, 2020).
In brackets after ≈: the same amount, converted by molar mass. Several values for one entry are separate records, joined by “and”; a condition that tells them apart may be missing. Identical values can stand only once.

Legend:
[1] = system: C. difficile ATCC BAA 1801; experiment: MIC, broth microdilution, initial screening; assay type: cell-based, Clostridioides difficile; conditions: for MIC: Clostridioides difficile, BAA1801, 48 h
[2] = system: Bacteroides fragilis HM-711; experiment: MIC against normal gut microbiota; assay type: cell-based; conditions: HM711
[3] = system: Lactobacillus gasseri HM-400; experiment: MIC against normal gut microbiota; assay type: cell-based; conditions: HM400
[4] = system: Lactobacillus crispatus HM-103; experiment: MIC against normal gut microbiota; assay type: cell-based; conditions: HM103
[5] = system: C. difficile NR-32904 (P30); experiment: MIC, broth microdilution, clinical isolate; assay type: cell-based; conditions: Clostridioides difficile
[6] = system: Lactobacillus crispatus HM-371; experiment: MIC against normal gut microbiota; assay type: cell-based; conditions: HM371
[7] = system: Bacteroides fragilis HM-709; experiment: MIC against normal gut microbiota; assay type: cell-based; conditions: HM709
[8] = system: C. difficile NR-32891 (P13); experiment: MIC, broth microdilution, clinical isolate; assay type: cell-based; conditions: Clostridioides difficile
C. difficile ATCC 43255 [9] = experiment: MIC, broth microdilution, clinical isolate; assay type: cell-based; conditions: Clostridioides difficile, ATCC43255
[10] = system: E. coli BW25113 (wild-type strain); experiment: MIC, broth microdilution; assay type: cell-based, Escherichia coli; conditions: for MIC: Escherichia coli, BW25113
[11] = system: E. coli JW55031 (TolC Mutant); experiment: MIC, broth microdilution; assay type: cell-based; conditions: Escherichia coli
[12] = system: human colorectal cells (Caco-2); experiment: In vitro cytotoxicity, MTS assay; assay type: cell-based; conditions: 2 hours incubation with compound
C. difficile ATCC 43255 [13] = experiment: Frequency of spontaneous mutation; conditions: for isolation of resistant mutants: high inoculum
Bacteroides spp = experiment: MIC over Bacteroides species; assay type: cell-based; conditions: read-out: MIC against species of Bacteroides
Lactobacillus strains = experiment: MIC over Lactobacillus strains; assay type: cell-based, Lactobacillus spp; conditions: read-out: MIC against Lactobacillus strains
[14] = system: C. difficile NR-13435 (isolate 9); experiment: MIC, broth microdilution, clinical isolate; assay type: cell-based; conditions: Clostridioides difficile
VRE clinical isolates = experiment: MIC range over VRE clinical isolates; assay type: cell-based, vancomycin-resistant enterococci; conditions: Enterococcus, read-out: MICs ranging over VRE clinical isolates
[15] = system: C. difficile NR-13432 (isolate 6); experiment: MIC, broth microdilution, clinical isolate; assay type: cell-based; conditions: Clostridioides difficile
E. faecalis ATCC 51299 = experiment: MIC, broth microdilution; assay type: cell-based; conditions: Enterococcus faecalis, ATCC51299
Caco-2 bilayers = experiment: Caco-2 bidirectional permeability assay; assay type: in vitro ADME, human
E. faecium ATCC 700221 = experiment: MIC, broth microdilution; assay type: cell-based; conditions: Enterococcus faecium, ATCC700221
[16] = system: C. difficile NR-32883 (P2); experiment: MIC, broth microdilution, clinical isolate; assay type: cell-based; conditions: Clostridioides difficile
[17] = cited from earlier work
[18] = system: C. difficile NR-32895 (P19); experiment: MIC, broth microdilution, clinical isolate; assay type: cell-based; conditions: Clostridioides difficile
[19] = system: C. difficile infection (CDI); conditions: cited from earlier work
[20] = 15 × MIC, inoculum ~10^9 CFU/mL
[21] = 20 × MIC, inoculum ~10^9 CFU/mL
[22] = C. difficile ATCC BAA 1801, anaerobic, 48 hours

Compound | MIC [2] | MIC [3] | MIC [4] | MIC [6] [µg/mL] | MIC [7] [µg/mL] | MIC (C. difficile ATCC 43255 [9]) [µg/mL] | MIC [10] | MIC [11] | MIC (E. faecalis ATCC 51299) [µg/mL] | MIC (E. faecium ATCC 700221) [µg/mL] | MIC [1, 22] [µg/mL] | other results
Cc1ccc(-c2nnc(NC(=O)c3ccc(SC(F)(F)F)cc3)o2)cc1 [Compound 12, N-(5-(4-Methylphenyl)-1,3,4-oxadiazol-2-yl)-4-((trifluoromethyl)thio)benzamide] |  |  |  |  |  |  |  |  |  |  |  | activity against C. difficile ATCC BAA 1801 in words [1]: only moderate to no actvity
CCc1c(Cl)c(O)c(Cl)c(O)c1C(=O)O[C@H]1[C@H](O)[C@H](OC)[C@H](OC/C2=C\C=C\C[C@H](O)/C(C)=C/[C@H](CC)[C@@H](O[C@@H]3OC(C)(C)[C@@H](OC(=O)C(C)C)[C@H](O)[C@@H]3O)/C(C)=C/C(C)=C/C[C@@H]([C@@H](C)O)OC2=O)O[C@@H]1C [Fidaxomicin] | > 64 µg/mL and > 60.5 µM | > 64 µg/mL | > 64 µg/mL and > 60.5 µM | > 64 | > 64 | 0.015 (≈ 0.0142 µM) |  |  |  |  |  | MIC [5]: 0.015 µg/mL (≈ 0.0142 µM); MIC [8]: 0.015 µg/mL (≈ 0.0142 µM)
CNC(C)C1CCC(N)C(OC2C(N)CC(N)C(OC3OCC(C)(O)C(NC)C3O)C2O)O1 (stereo not shown) [Gentamicin] |  |  |  |  |  |  | 0.25 µg/mL and 0.52 µM | 0.25 µg/mL and 0.52 µM |  |  |  | 
O=C(Nc1nnc(-c2cc(Cl)cc(Cl)c2)o1)c1ccc(SC(F)(F)F)cc1 [HSGN-218, N-(5-(3,5-Dichlorophenyl)-1,3,4-oxadiazol-2-yl)-4-((trifluoromethyl)thio)benzamide] | 2 µg/mL (≈ 4.61 µM) | 16 µg/mL (≈ 36.8 µM) | 16 µg/mL (≈ 36.8 µM) | 16 (≈ 36.8 µM) | 1 (≈ 2.3 µM) | 0.015 (≈ 0.0345 µM) | > 16 µg/mL | 4 µg/mL (≈ 9.21 µM) | 0.06 (≈ 0.138 µM) | 0.125 (≈ 0.288 µM) |  | concentration highly tolerable to Caco-2 cells [12]: higher than 64 μg/mL; isolation of resistant mutants (C. difficile ATCC 43255 [13]; 15 × MIC and 20 × MIC): No resistant mutants were isolated; Frequency of mutation (C. difficile ATCC 43255 [13]; [20]): <1.1× 10^−9; Frequency of mutation (C. difficile ATCC 43255 [13]; [21]): <1.1× 10^−9; MIC (Bacteroides spp): 1 µg/mL to 2 µg/mL and 2.3 µM to 4.6 µM; MIC (Lactobacillus strains): 16 µg/mL (≈ 36.8 µM); MIC [14]: 0.003 µg/mL (≈ 0.00691 µM); MIC (VRE clinical isolates): 0.06 µg/mL to 0.125 µg/mL and 0.14 µM to 0.29 µM; MIC [15]: 0.03 µg/mL (≈ 0.0691 µM); activity against E. coli BW25113 in words ([10]; wild-type strain): inactive; Notes (permeability class) (Caco-2 bilayers): Low Permeability
CC(=O)NC[C@H]1CN(c2ccc(N3CCOCC3)c(F)c2)C(=O)O1 [Linezolid] |  |  |  |  |  |  | > 64 µg/mL and > 190 µM | 16 µg/mL (≈ 47.4 µM) | 1 (≈ 2.96 µM) | 1 (≈ 2.96 µM) |  | 
Cc1ncc([N+](=O)[O-])n1CCO [Metronidazole] | ≤ 1 µg/mL | > 64 µg/mL | > 64 µg/mL and > 374 µM | > 64 | 2 (≈ 11.7 µM) | 0.25 (≈ 1.46 µM) |  |  | > 64 | > 64 | 0.25 (≈ 1.46 µM) | MIC [16]: 0.125 µg/mL (≈ 0.73 µM); bioavailable (absorption from the intestinal tract) [17]: 100%; MIC [14]: 0.125 µg/mL (≈ 0.73 µM); MIC [15]: 0.25 µg/mL (≈ 1.46 µM); MIC [5]: 0.25 µg/mL (≈ 1.46 µM); MIC [18]: 0.25 µg/mL (≈ 1.46 µM); MIC [8]: 0.125 µg/mL (≈ 0.73 µM); treatment failure [19]: 22%
CC(C)NCC(O)COc1cccc2ccccc12 (stereo not shown) [Propranolol] |  |  |  |  |  |  |  |  |  |  |  | Notes (permeability class) (Caco-2 bilayers): High Permeability Control
CNC(=C[N+](=O)[O-])NCCSCc1ccc(CN(C)C)o1 [Ranitidine] |  |  |  |  |  |  |  |  |  |  |  | Notes (permeability class) (Caco-2 bilayers): Low Permeability Control
CN[C@H](CC(C)C)C(=O)N[C@H]1C(=O)N[C@@H](CC(N)=O)C(=O)N[C@H]2C(=O)N[C@H]3C(=O)N[C@H](C(=O)N[C@H](C(=O)O)c4cc(O)cc(O)c4-c4cc3ccc4O)[C@H](O)c3ccc(c(Cl)c3)Oc3cc2cc(c3O[C@@H]2O[C@H](CO)[C@@H](O)[C@H](O)[C@H]2O[C@H]2C[C@](C)(N)[C@H](O)[C@H](C)O2)Oc2ccc(cc2Cl)[C@H]1O [Vancomycin] | 64 µg/mL (≈ 44.2 µM) | ≤ 1 µg/mL and ≤ 0.7 µM | 2 µg/mL (≈ 1.38 µM) | 2 (≈ 1.38 µM) | 32 (≈ 22.1 µM) | 1 (≈ 0.69 µM) | > 64 µg/mL | > 64 µg/mL | > 64 | 32 (≈ 22.1 µM) |  | MIC [16]: 0.5 µg/mL (≈ 0.345 µM); Frequency of mutation (C. difficile ATCC 43255 [13]; 15 × MIC and 20 × MIC): < 1.1× 10^−9; isolation of resistant mutants (C. difficile ATCC 43255 [13]; 15 × MIC and 20 × MIC): no resistant mutants were isolated; Frequency of mutation (C. difficile ATCC 43255 [13]; [20]): <1.1× 10^−9; Frequency of mutation (C. difficile ATCC 43255 [13]; [21]): <1.1× 10^−9; MIC (Bacteroides spp): 32 µg/mL to 64 µg/mL and 22.1 µM to 44.2 µM; MIC (Lactobacillus strains): 1 µg/mL to 2 µg/mL and 0.7 µM to 1.4 µM; MIC [14]: 1 µg/mL (≈ 0.69 µM); MIC [1]: 1 µg/mL (≈ 0.69 µM); MIC [15]: 0.25 µg/mL (≈ 0.173 µM); MIC [5]: 1 µg/mL (≈ 0.69 µM); MIC [18]: 1 µg/mL (≈ 0.69 µM); MIC [8]: 0.5 µg/mL (≈ 0.345 µM); treatment failure [19]: 14%
O=C(Nc1nnc(-c2ccccc2)o1)c1ccc(SC(F)(F)F)cc1 [compound 1, N-(5-Phenyl-1,3,4-oxadiazol-2-yl)-4-((trifluoromethyl)thio)benzamide] |  |  |  |  |  |  |  |  |  |  | 2 (≈ 5.47 µM) | 
O=C(Nc1nnc(-c2ccccc2F)o1)c1ccc(SC(F)(F)F)cc1 [compound 2, N-(5-(2-Fluorophenyl)-1,3,4-oxadiazol-2-yl)-4-((trifluoromethyl)thio)benzamide] |  |  |  |  |  |  |  |  |  |  | 4 (≈ 10.4 µM) | 
O=C(Nc1nnc(-c2ccccc2Cl)o1)c1ccc(SC(F)(F)F)cc1 [compound 3, N-(5-(2-Chlorophenyl)-1,3,4-oxadiazol-2-yl)-4-((trifluoromethyl)thio)benzamide] |  |  |  |  |  |  |  |  |  |  | 4 (≈ 10 µM) | 
